Source: publication PMC10629462 (Molecular cell, 2023)

Legend:
[1] = biological target: CtSen1^FL (Thermochaetoides thermophila, UniProt G0S163); assay: malachite green phosphate release ATPase assay; assay type: biochemical; settings: 1 mM ATP, 2 mM MgCl2, pH 7.5, 37 °C, RNA-DNA Sub6 5 μM, 5 nM enzyme
[2] = biological target: T1, CtSen1Hel-1878 (Chaetomium thermophilum, UniProt G0S163 1087-1878); assay: X-ray crystallography
T1 sequence: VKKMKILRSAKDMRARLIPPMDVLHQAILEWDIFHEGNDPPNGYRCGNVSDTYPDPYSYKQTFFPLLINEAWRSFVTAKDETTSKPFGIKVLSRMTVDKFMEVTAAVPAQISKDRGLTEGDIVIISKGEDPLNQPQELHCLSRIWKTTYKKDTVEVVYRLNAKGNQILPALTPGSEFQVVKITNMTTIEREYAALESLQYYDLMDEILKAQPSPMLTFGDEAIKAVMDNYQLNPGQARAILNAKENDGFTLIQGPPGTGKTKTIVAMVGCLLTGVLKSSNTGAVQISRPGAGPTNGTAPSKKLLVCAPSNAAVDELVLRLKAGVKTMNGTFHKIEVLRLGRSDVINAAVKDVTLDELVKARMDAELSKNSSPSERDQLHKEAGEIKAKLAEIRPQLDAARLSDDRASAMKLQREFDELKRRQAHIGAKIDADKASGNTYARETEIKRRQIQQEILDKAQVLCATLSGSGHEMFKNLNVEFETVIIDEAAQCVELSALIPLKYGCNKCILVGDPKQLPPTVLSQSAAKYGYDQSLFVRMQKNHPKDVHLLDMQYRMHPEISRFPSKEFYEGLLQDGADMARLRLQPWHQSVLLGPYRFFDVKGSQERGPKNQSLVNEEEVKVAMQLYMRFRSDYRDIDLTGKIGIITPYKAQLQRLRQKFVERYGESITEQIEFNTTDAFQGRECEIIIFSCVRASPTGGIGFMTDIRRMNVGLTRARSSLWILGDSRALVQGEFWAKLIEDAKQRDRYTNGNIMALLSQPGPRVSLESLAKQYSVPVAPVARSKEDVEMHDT

Sequence of CtSen1^FL (G0S163 1-1993): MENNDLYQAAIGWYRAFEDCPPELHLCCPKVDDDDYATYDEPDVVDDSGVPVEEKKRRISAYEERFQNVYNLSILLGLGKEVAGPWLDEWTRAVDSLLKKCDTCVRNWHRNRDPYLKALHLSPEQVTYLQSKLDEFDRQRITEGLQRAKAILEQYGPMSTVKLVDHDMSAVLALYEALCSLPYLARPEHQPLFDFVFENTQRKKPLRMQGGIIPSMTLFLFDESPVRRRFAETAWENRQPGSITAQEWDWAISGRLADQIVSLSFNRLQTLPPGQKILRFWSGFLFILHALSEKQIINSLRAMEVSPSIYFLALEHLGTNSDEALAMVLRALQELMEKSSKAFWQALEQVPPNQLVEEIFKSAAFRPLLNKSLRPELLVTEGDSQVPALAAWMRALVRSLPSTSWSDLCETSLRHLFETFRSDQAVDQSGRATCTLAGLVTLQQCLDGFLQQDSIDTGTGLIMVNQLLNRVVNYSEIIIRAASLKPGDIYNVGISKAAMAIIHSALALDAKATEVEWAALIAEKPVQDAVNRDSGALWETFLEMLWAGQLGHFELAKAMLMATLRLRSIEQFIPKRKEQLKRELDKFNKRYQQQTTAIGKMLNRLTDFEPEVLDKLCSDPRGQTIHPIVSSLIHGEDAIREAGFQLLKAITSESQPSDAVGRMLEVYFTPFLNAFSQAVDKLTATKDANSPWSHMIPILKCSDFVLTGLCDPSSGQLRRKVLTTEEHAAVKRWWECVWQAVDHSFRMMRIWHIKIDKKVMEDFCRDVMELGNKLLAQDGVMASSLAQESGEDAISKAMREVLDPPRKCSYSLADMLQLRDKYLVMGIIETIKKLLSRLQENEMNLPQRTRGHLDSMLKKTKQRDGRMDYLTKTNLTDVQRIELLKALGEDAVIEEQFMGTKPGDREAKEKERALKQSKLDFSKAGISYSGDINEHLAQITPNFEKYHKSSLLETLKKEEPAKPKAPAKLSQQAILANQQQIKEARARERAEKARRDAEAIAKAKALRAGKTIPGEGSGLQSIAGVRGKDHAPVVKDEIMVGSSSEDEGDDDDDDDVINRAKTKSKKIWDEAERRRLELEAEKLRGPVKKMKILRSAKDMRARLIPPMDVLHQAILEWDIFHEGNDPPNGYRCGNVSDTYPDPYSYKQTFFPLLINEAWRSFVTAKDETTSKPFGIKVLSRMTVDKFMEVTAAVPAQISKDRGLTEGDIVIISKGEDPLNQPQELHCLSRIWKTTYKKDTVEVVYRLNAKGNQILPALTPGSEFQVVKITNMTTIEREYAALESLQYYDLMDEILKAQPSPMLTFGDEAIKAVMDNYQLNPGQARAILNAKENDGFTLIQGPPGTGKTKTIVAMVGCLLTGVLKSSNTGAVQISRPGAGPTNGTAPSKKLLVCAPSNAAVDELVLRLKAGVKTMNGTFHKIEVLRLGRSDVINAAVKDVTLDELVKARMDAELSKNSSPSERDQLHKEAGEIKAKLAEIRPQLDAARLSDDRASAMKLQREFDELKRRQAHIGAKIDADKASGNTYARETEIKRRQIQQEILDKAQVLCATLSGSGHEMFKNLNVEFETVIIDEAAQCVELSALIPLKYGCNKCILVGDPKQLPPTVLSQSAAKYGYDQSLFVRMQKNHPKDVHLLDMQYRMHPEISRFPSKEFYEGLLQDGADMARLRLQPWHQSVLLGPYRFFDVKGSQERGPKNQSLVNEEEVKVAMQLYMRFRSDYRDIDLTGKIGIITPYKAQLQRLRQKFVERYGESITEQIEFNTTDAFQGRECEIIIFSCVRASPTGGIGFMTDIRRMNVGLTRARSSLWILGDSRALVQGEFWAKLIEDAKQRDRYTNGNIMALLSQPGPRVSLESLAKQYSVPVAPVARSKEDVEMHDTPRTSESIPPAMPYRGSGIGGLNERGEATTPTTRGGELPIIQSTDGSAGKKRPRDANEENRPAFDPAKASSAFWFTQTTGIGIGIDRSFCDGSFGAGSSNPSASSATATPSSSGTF

Row | Molecule | malachite green phosphate release ATPase assay [1] | binding result [2]
1 | Nc1ncnc2c1ncn2[C@@H]1O[C@H](COP(=O)(O)OP(=O)(O)OP(=O)(O)O)[C@@H](O)[C@H]1O [ATP] | Substrate stimulated ATP hydrolysis of mutant Sen1 proteins was monitored in a phosphate release assay | –
2 | UUUUUUUUUUUUUUU (ssRNA) [poly-U 15 nt] | – | binds
